According to patent publication US20070149554A1, “Cancer chemotherapy” (Yung Shin Pharmaceutical Ind. Co., Ltd., priority 2005, published 2007):

Key:
WEHI-3 leukemia cells = assay: Survival, organ and body weight, spleen histopathology of BALB/c mice bearing WEHI-3 leukemia cells; assay type: in vivo; conditions: for mean survival time of WEHI-3/BALB/c mice: 30 mg/kg/mouse i.p., untreated 30 days, text of b65; for Survival days Range / Survival days Mean ± S.D.: 30 mg/kg/mouse, QD*7 (once two days by seven times), 10 mice; for Survival days Range: untreated 20-30; for Survival days Mean ± S.D.: untreated 26.0 ± 3.9; for infiltration of immature myeloblastic cells into splenic red pulp: H-E stain of spleen section, FIG. 2; for body weight loss in leukemia mice: within one month of experiment, data not shown
Procedure: Murine myelomonocytic leukemia cell line WEHI-3 was obtained from the Food Industry Research and Development Institute (Hsinchu, Taiwan). […] This cell line can induce leukemia in syngenic BALB/c mice for evaluating anti-leukemia effects of drugs.
Specifically, BLAB/c mice were divided into 4 groups. Group I was injected i.p. with WEHI-3 only. […] Control mice and all groups of mice were treated for 2 weeks before the animals were weighed and the blood was draw and sacrificed for further experiments.
The spleen and liver tissues were isolated from individual animals, photographed, weighed, and histopathologically examined.

WEHI-3 cells [1] = assay: TUNEL/DAPI staining (apoptosis) in WEHI-3 cells; assay type: cell-based, murine; conditions: for TUNEL positive cells: 24 h, FIG. 3B; for nuclear shrinkage, chromatin condensation and DNA fragmentation (TUNEL/DAPI): 24 h culture, FIG. 3A
WEHI-3 cells [2] = assay: NBT reduction (differentiation) in WEHI-3 cells; assay type: cell-based, murine; conditions: 24 h; for percentages of NBT positive cells: FIG. 3B
platelet = conditions: cited from earlier work
WEHI-3 cells [3] = assay: Cell cycle analysis of WEHI-3 cells in vitro; assay type: cell-based, murine; conditions: compound 1 5 μM, ATRA 1 μM, 24 h; data not shown
[4] = tested on: human hepatocellular carcinoma HA22T cells; conditions: cited from earlier work
caspase-3 = assay: Caspase-3 activity assay in WEHI-3 cells; conditions: 12, 18 and 24 h treatment; 50 μM of compound 1; FIG. 4B
Procedure: (§1) The results were expressed as mean±S.D. and the difference between the groups was tested by one way ANOVA.

Hep3B cells = conditions: cited from earlier work
WEHI-3 cells [5] = assay: DNA fragmentation by agarose gel electrophoresis in WEHI-3 cells; conditions: compound 1 at 5 μM, 12 and 24 h; FIG. 4A
Procedure: as §1

A498 renal cancer cells = assay: A498 renal cancer xenograft tumor growth in athymic nude mice; assay type: in vivo; conditions: single agent; Compound 1 10 mg/kg/day oral in 0.5% CMC; paclitaxel or doxorubicin 20 mg/kg/week i.p.; nude mice with A498 tumors
Procedure: Athymic nude mice (BALB/c nu/nu female, 6-8 week old) were housed at 22° C. on a 12 h light/dark cycle. The mice were subcutaneously injected with A498 renal cancer cells (10^7 cell/mouse). After inoculation for 15 days, tumors were grown to a size of 100 to 150 mm^3. The mice were then randomly divided into six grounds (5 mice in each group). […] (paclitaxel and doxorubicin are commercial products). […] The tumors were carefully removed and weighed.

| Structure (SMILES) | mean survival time of WEHI-3/BALB/c mice (WEHI-3 leukemia cells) | Survival days Range (WEHI-3 leukemia cells) | Survival days Mean ± S.D. (WEHI-3 leukemia cells) | infiltration of immature myeloblastic cells into splenic red pulp (WEHI-3 leukemia cells) | body weight loss in leukemia mice (WEHI-3 leukemia cells) | TUNEL positive cells (WEHI-3 cells [1]) | nuclear shrinkage, chromatin condensation and DNA fragmentation (TUNEL/DAPI) (WEHI-3 cells [1]) | NBT-reduction compared with control cells (WEHI-3 cells [2]) | percentages of NBT positive cells (WEHI-3 cells [2]) | antiplatelet activity (platelet) | sub-G1 population (WEHI-3 cells [3]) | cell cycle arrest [4] | caspase-3 activity (caspase-3) | hypoxia induction of erythropoietin and vascular endothelial growth factor (Hep3B cells) | DNA fragmentation (agarose gel) (WEHI-3 cells [5]) | tumor size compared with control group (A498 renal cancer cells) |
| --- | --- | --- | --- | --- | --- | --- | --- | --- | --- | --- | --- | --- | --- | --- | --- | --- |
| CC1=C(/C=C/C(C)=C/C=C/C(C)=C/C(=O)O)C(C)(C)CCC1 [ATRA, all trans retinoic acid, reference compound] | 42 days | 26 to 42 days | 33.9 ± 5.0 days | reduced | improved the body weight loss | 5.45% | not observed | significant increases | 33.42% | – | – | – | – | – | – | – |
| OCc1ccc(-c2nn(Cc3ccccc3)c3ccccc23)o1 [Compound 1, 1-benzyl-3-(5′-hydroxymethyl-2′-furyl)indazole] | 40 days | 22 to 40 days | 32.3 ± 4.9 days | reduced | improved the body weight loss | 40.33% | exhibited nuclear shrinkage, chromatin condensation and DNA fragmentation | – | 3.56% | novel antiplatelet agent | increased sub-GI population | arresting cell cycles at the Go/G1 stage | rapid induction of caspase-3 activity | inhibits hypoxia induction of erythropoietin and vascular endothelial growth factor | fragmented into a ladder of 180-200 base pairs | smaller tumors than those in the control group |
| COc1cccc2c1C(=O)c1c(O)c3c(c(O)c1C2=O)C[C@@](O)(C(=O)CO)C[C@@H]3O[C@H]1C[C@H](N)[C@H](O)[C@H](C)O1 [doxorubicin, Doxorubicin] | – | – | – | – | – | – | – | – | – | – | – | – | – | – | – | smaller tumors than those in the control group |
| CC(=O)O[C@H]1C(=O)[C@@]2(C)[C@H]([C@H](OC(=O)c3ccccc3)[C@]3(O)C[C@H](OC(=O)[C@H](O)[C@@H](NC(=O)c4ccccc4)c4ccccc4)C(C)=C1C3(C)C)[C@]1(OC(C)=O)CO[C@@H]1C[C@@H]2O [paclitaxel, Paclitaxel] | – | – | – | – | – | – | – | – | – | – | – | – | – | – | – | smaller tumors than those in the control group |
